Reference: patent publication US7772183B2 (Bristol-Myers Squibb Company, priority 2005, dated 2010)

What was measured:
[1] = target: T1, HCV NS3/4A protease complex, BMS strain (UniProt P27958, species not given/STRAIN_BMS); assay: FRET peptide assay to monitor HCV NS3/4A proteolytic activity (BMS strain); type: biochemical, Hepatitis C virus (genotype 1a); details: NS3/4A BMS strain; read-out: IC50 Range
T1 construct: said of H77 and J4L6S; fused on or other part: A three-lysine solubilising tail at the C-terminus of NS4A and a His tag (pET21b, Ni-NTA purification)
T1 sequence (P27958 1027-1657, change not shown, one chain of several): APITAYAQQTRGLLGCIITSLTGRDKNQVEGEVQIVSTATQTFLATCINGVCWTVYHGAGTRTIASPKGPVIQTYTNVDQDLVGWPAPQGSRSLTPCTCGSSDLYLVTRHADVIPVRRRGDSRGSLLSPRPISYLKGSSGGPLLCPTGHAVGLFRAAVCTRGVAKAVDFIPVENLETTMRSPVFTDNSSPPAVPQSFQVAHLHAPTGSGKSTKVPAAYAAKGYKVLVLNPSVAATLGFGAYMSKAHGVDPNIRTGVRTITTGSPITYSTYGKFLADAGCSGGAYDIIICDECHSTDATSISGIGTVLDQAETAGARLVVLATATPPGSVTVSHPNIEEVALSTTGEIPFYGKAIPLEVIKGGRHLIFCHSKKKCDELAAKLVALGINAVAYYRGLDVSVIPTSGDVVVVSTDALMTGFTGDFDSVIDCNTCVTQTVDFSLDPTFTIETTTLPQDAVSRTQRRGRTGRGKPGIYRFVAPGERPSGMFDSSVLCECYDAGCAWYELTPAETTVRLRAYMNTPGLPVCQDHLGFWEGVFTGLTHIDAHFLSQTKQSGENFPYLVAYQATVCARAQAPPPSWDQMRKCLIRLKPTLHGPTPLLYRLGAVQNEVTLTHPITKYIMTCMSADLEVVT
From the text: HCV NS3 protease complexes, derived from the BMS strain, H77 strain or J4L6S strain, were generated, as described below. These purified recombinant proteins were generated for use in a homogeneous assay (see below) to provide an indication of how effective compounds of the present disclosure would be in inhibiting HCV NS3 proteolytic activity.
Serum from an HCV-infected patient was obtained from Dr. T. Wright, San Francisco Hospital. An engineered full-length cDNA (compliment deoxyribonucleic acid) template of the HCV genome (BMS strain) was constructed from DNA fragments obtained by reverse transcription-PCR (RT-PCR) of serum RNA (ribonucleic acid) and using primers selected on the basis of homology between other genotype 1a strains. From the determination of the entire genome sequence, a genotype 1a was assigned to the HCV isolate according to the classification of Simmonds et al. (See P Simmonds, K A Rose, S Graham, S W Chan, F McOmish, B C Dow, E A Follett, P L Yap and H Marsden, J. Clin. Microbiol., 31(6), 1493-1503 (1993)). […] The infectious clones, H77 (1a genotype) and J4L6S (1b genotype) were obtained from R. Purcell (NIH) and the sequences are published in Genbank (AAB67036, see Yanagi, M., Purcell, R. H., Emerson, S. U. and Bukh, J. Proc. Natl. Acad. Sci. U.S.A. 94(16), 8738-8743 (1997); AF054247, see Yanagi, M., St Claire, M., Shapiro, M., Emerson, S. U., Purcell, R. H. and Bukh, J, Virology 244 (1), 161-172. (1998)).
The H77 and J4L6S strains were used for production of recombinant NS3/4A protease complexes. DNA encoding the recombinant HCV NS3/4A protease complex (amino acids 1027 to 1711) for these strains were manipulated as described by P. Gallinari et al. (see Gallinari P, Paolini C, Brennan D, Nardi C, Steinkuhler C, De Francesco R. Biochemistry. 38(17):5620-32, (1999)). Briefly, a three-lysine solubilizing tail was added at the 3′-end of the NS4A coding region. The cysteine in the P1 position of the NS4A-NS4B cleavage site (amino acid 1711) was changed to a glycine to avoid the proteolytic cleavage of the lysine tag. Furthermore, a cysteine to serine mutation was introduced by PCR at amino acid position 1454 to prevent the autolytic cleavage in the NS3 helicase domain. The variant DNA fragment was cloned in the pET21b bacterial expression vector (Novagen) and the NS3/4A complex was expressed in Escherichia coli strain BL21 (DE3) (Invitrogen) following the protocol described by P. Gallinari et al. (see Gallinari P, Brennan D, Nardi C, Brunetti M, Tomei L, Steinkuhler C, De Francesco R., J Virol. 72(8):6758-69 (1998)) with modifications. Briefly, the NS3/4A protease complex expression was induced with 0.5 mM Isopropyl β-D-1-thiogalactopyranoside (IPTG) for 22 hours (h) at 20° C. A typical fermentation (1 Liter (L)) yielded approximately 10 grams (g) of wet cell paste. The cells were resuspended in lysis buffer (10 mL/g) consisting of 25 mM N-(2-Hydroxyethyl)Piperazine-N′-(2-Ethane Sulfonic acid) (HEPES), pH 7.5, 20% glycerol, 500 mM Sodium Chloride (NaCl), 0.5% Triton X-100, 1 microgram/milliliter (“μg/mL”) lysozyme, 5 mM Magnesium Chloride (MgCl2), 1 μg/ml Dnasel, 5 mM β-Mercaptoethanol (βME), Protease inhibitor-Ethylenediamine Tetraacetic acid (EDTA) free (Roche), homogenized and incubated for 20 minutes (min) at 4° C. The homogenate was sonicated and clarified by ultra-centrifugation at 235000 g for 1 h at 4° C. Imidazole was added to the supernatant to a final concentration of 15 mM and the pH adjusted to 8.0. The crude protein extract was loaded on a Nickel-Nitrilotriacetic acid (Ni-NTA) column pre-equilibrated with buffer B (25 mM HEPES, pH 8.0, 20% glycerol, 500 mM NaCl, 0.5% Triton X-100, 15 mM imidazole, 5 mM βME). The sample was loaded at a flow rate of 1 mL/min. The column was washed with 15 column volumes of buffer C (same as buffer B except with 0.2% Triton X-100). The protein was eluted with 5 column volumes of buffer D (same as buffer C except with 200 mM Imidazole). […]

[2] = system: HCV replicon in HUH-7 cells; assay: HCV replicon FRET assay; type: cell-based, Hepatitis C virus (strain 1b); details: Hepatitis C virus, Huh-7; HCV replicon, for compounds tested; read-out: EC50 Range
From the text: An HCV replicon whole cell system was established as described by Lohmann V, Komer F, Koch J, Herian U, Theilmann L, Bartenschlager R., Science 285(5424):110-3 (1999). This system enabled us to evaluate the effects of our HCV Protease compounds on HCV RNA replication. Briefly, using the HCV strain 1b sequence described in the Lohmann paper (Assession number: AJ238799), an HCV cDNA was synthesized by Operon Technologies, Inc. (Alameda, Calif.), and the full-length replicon was then assembled in plasmid pGem9zf(+) (Promega, Madison, Wis.) using standard molecular biology techniques. The replicon consists of (i) the HCV 5′ UTR fused to the first 12 amino acids of the capsid protein, (ii) the neomycin phosphotransferase gene (neo), (iii) the IRES from encephalomyocarditis virus (EMCV), and (iv) HCV NS3 to NS5B genes and the HCV 3′ UTR. Plasmid DNAs were linearized with Scal and RNA transcripts were synthesized in vitro using the T7 MegaScript transcription kit (Ambion, Austin, Tex.) according to manufacturer's directions. In vitro transcripts of the cDNA were transfected into the human hepatoma cell line, HUH-7. […] Resulting cell lines were characterized for positive and negative strand RNA production and protein production over time.
The HCV replicon FRET assay was developed to monitor the inhibitory effects of compounds described in the disclosure on HCV viral replication. HUH-7 cells, constitutively expressing the HCV replicon, were grown in Dulbecco's Modified Eagle Media (DMEM) (Gibco-BRL) containing 10% Fetal calf serum (FCS) (Sigma) and 1 mg/ml G418 (Gibco-BRL). Cells were seeded the night before (1.5×10^4 cells/well) in 96-well tissue-culture sterile plates. Compound and no compound controls were prepared in DMEM containing 4% FCS, 1:100 Penicillin/Streptomysin (Gibco-BRL), 1:100 L-glutamine and 5% DMSO in the dilution plate (0.5% DMSO final concentration in the assay). Compound/DMSO mixes were added to the cells and incubated for 4 days at 37° C. After 4 days, cells were first assessed for cytotoxicity using alamar Blue (Trek Diagnotstic Systems) for a CC50 reading. The toxicity of compound (CC50) was determined by adding 1/10th volume of alamar Blue to the media incubating the cells. After 4 hours, the fluorescence signal from each well was read, with an excitation wavelength at 530 nm and an emission wavelength of 580 nm, using the Cytofluor Series 4000 (Perspective Biosystems). Plates were then rinsed thoroughly with Phosphate-Buffered Saline (PBS) (3 times 150 μl). The cells were lysed with 25 μl of a lysis assay reagent containing an HCV protease substrate (5× cell Luciferase cell culture lysis reagent (Promega #E153A) diluted to 1× with distilled water, NaCl added to 150 mM final, the FRET peptide substrate (as described for the enzyme assay above) diluted to 10 μM final from a 2 mM stock in 100% DMSO. […]. The plate was then placed into the Cytofluor 4000 instrument which had been set to 340 nm excitation/490 nm emission, automatic mode for 21 cycles and the plate read in a kinetic mode. EC50 determinations were carried out as described for the IC50 determinations.

Row | SMILES | IC50 [1] [nM] | EC50 [2] [nM] | melting point [°C]
1 | CC(C)(C)OC(=O)N[C@H]1CCCOC/C=C\[C@@H]2C[C@@]2(C(=O)NS(=O)(=O)C2CC2)NC(=O)[C@@H]2C[C@@H](OC(=O)C3CCCCC3)CN2C1=O [Compound 3, 18-cyclohexanecarbonyloxy-14-tert-butoxycarbonylamino-4-cyclopropylsulfonylaminocarbonyl-2,15-dioxo-3,16-diaza-10-oxatricyclo-[14.3.0.0^4,6]-nonadec-7-ene] | < 100 | > 1000 | 128 to 130
2 | CC(C)(C)OC(=O)N[C@H]1CCCOC/C=C\[C@@H]2C[C@@]2(C(=O)NS(=O)(=O)C2CC2)NC(=O)[C@@H]2C[C@@H](OC(=O)C(C)(C)C)CN2C1=O [Compound 4, 18-pivaloyloxy-14-tert-butoxycarbonylamino-4-cyclopropylsulfonylaminocarbonyl-2,15-dioxo-3,16-diaza-10-oxatricyclo-[14.3.0.0^4,6]-nonadec-7-ene] | < 100 | > 1000 | 143 to 145
3 | CC(C)(C)OC(=O)N[C@H]1CCCOC/C=C\[C@@H]2C[C@@]2(C(=O)NS(=O)(=O)C2CC2)NC(=O)[C@@H]2C[C@@H](OC(=O)CC3CCCCC3)CN2C1=O [Compound 6, 18-cyclohexaneacetyloxy-14-tert-butoxycarbonylamino-4-cyclopropylsulfonylaminocarbonyl-2,15-dioxo-3,16-diaza-10-oxatricyclo-[14.3.0.0^4,6]-nonadec-7-ene] | < 100 | > 1000 | 107 to 109
4 | COc1ccccc1C(=O)O[C@@H]1C[C@H]2C(=O)N[C@]3(C(=O)NS(=O)(=O)C4CC4)C[C@H]3/C=C\COCCC[C@H](NC(=O)OC(C)(C)C)C(=O)N2C1 [Compound 7, 18-(2-methoxybenzoyloxy)-14-tert-butoxycarbonylamino-4-cyclopropylsulfonylaminocarbonyl-2,15-dioxo-3,16-diaza-10-oxa-tricyclo-[14.3.0.0^4,6]-nonadec-7-ene] | < 100 | > 1000 | 144 to 146
5 | COc1ccc(C(=O)O[C@@H]2C[C@H]3C(=O)N[C@]4(C(=O)NS(=O)(=O)C5CC5)C[C@H]4/C=C\COCCC[C@H](NC(=O)OC(C)(C)C)C(=O)N3C2)c(OC)c1 [Compound 8, 18-(2,4-dimethoxybenzoyloxy)-14-tert-butoxycarbonylamino-4-cyclopropylsulfonylaminocarbonyl-2,15-dioxo-3,16-diaza-10-oxatricyclo-[14.3.0.0^4,6]-nonadec-7-ene] | < 100 | 100 to 1000 | 122 to 124
6 | COc1cccc(C(=O)O[C@@H]2C[C@H]3C(=O)N[C@]4(C(=O)NS(=O)(=O)C5CC5)C[C@H]4/C=C\COCCC[C@H](NC(=O)OC(C)(C)C)C(=O)N3C2)c1 [Compound 9, 18-(3-methoxybenzoyloxy)-14-tert-butoxycarbonylamino-4-cyclopropylsulfonylaminocarbonyl-2,15-dioxo-3,16-diaza-10-oxatricyclo-[14.3.0.0^4,6]-nonadec-7-ene] | < 100 | 100 to 1000 | 149 to 151
7 | COc1ccc(C(=O)O[C@@H]2C[C@H]3C(=O)N[C@]4(C(=O)NS(=O)(=O)C5CC5)C[C@H]4/C=C\COCCC[C@H](NC(=O)OC(C)(C)C)C(=O)N3C2)cc1 [Compound 10, 18-(4-methoxybenzoyloxy)-14-tert-butoxycarbonylamino-4-cyclopropylsulfonylaminocarbonyl-2,15-dioxo-3,16-diaza-10-oxatricyclo-[14.3.0.0^4,6]-nonadec-7-ene] | < 100 | 100 to 1000 | 145 to 147
8 | CC(C)(C)OC(=O)N[C@H]1CCCOC/C=C\[C@@H]2C[C@@]2(C(=O)NS(=O)(=O)C2CC2)NC(=O)[C@@H]2C[C@@H](OC(=O)c3ccc(-c4ccccc4)cc3)CN2C1=O [Compound 11, 18-(4-biphenylcarbonyloxy)-14-tert-butoxycarbonylamino-4-cyclopropylsulfonylaminocarbonyl-2,15-dioxo-3,16-diaza-10-oxatricyclo-[14.3.0.0^4,6]-nonadec-7-ene] | < 100 | < 100 | 160 to 162
9 | CC(C)(C)OC(=O)N[C@H]1COCCC/C=C\[C@@H]2C[C@@]2(C(=O)NS(=O)(=O)C2CC2)NC(=O)[C@@H]2C[C@@H](OC(=O)c3ccccc3)CN2C1=O [Compound 12, 18-benzoyloxy-14-tert-butoxycarbonylamino-4-cyclopropylsulfonylaminocarbonyl-2,15-dioxo-3,16-diaza-12-oxatricyclo-[14.3.0.0^4,6]-nonadec-7-ene] | < 100 | 100 to 1000 | 135 to 137
